Measured values published in patent US20110020801A1, “Carboxylesterase-1 Polymorphisms and Methods of Use Therefor” (priority 2007, published 2011).

Key:
p.Asp260fs CES1 = molecular target: T1, p.Asp260fs CES1 (Homo sapiens, UniProt P23141); experiment: MPH hydrolysis to ritalinic acid by S9 of cells expressing p.Asp260fs CES1 (HPLC); assay type: biochemical; conditions: S9 500 μg/ml, even at very high S9 concentration (2 mg/ml); 37° C., 2 h
T1 construct: a frameshift mutation that alters residues 260-299 and causes early truncation at a premature stop codon; expressed in transfected cells
T1 sequence (P23141 with tags, fused parts or gaps): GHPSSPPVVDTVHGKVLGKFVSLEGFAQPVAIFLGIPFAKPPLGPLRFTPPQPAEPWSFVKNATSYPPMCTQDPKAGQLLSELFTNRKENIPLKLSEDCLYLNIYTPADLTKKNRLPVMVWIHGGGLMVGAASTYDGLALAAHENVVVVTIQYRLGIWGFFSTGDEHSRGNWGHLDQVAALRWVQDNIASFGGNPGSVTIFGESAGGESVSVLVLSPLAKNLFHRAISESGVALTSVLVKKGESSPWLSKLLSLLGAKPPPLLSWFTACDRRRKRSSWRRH
Source text: (§1) The desired plasmid was designed such that the recombinant CES1 would be expressed in mammalian cells with a V5-His tag to facilitate detection and purification. Additionally, another plasmid was generated by inserting a stop codon after CES1A1 gene to yield the constructs expressing CES1 without V5-His tag. […] Thus, only untagged CES1 and its associated mutants were used in the enzymatic hydrolysis study. Two constructs of CES1 mutations, p.Gly143Glu and p.Asp260fs, were generated using a site-directed mutagenesis assay. All constructs were subjected to DNA sequencing analysis to confirm that the desired plasmids were obtained. The identified CES1A1 plasmids (WT, p.Gly143Glu, and p.Asp260fs) were co-transfected with pOG44 plasmid at a ratio of 1:10 into Flp-In™-293 cells using […] (Invitrogen, Carlsbad, Calif.). Additionally, the self-ligated pcDNA5/FRT/V5-His-TOPO® vector was included as a vector control. Twenty-four hours after transfection, cells were washed with PBS and fresh complete medium (Dulbecco's modified Eagle's medium containing 10% fetal bovine serum) was added. […]
(§2) After attaining approximately 95% confluence, cells were rinsed and harvested in PBS containing 10 mM HEPES (pH 7.4). […] The protein concentration was determined using a Pierce BCA assay kit (Rockford, Ill.).
(§3) For the study of MPH hydrolysis, the reaction was conducted in 1.5 mL eppendorf tubes with a final S9 concentration of 0.5 mg/mL at a total volume of 100 μL. […] Concentrations of the primary phase I MPH metabolite produced via hydrolysis, ritalinic acid (RA), was determined utilizing an established HPLC method described below.
(§4) Thus, following the enzymatic assay, the values determined for spontaneous PNP and RA hydrolysis were subtracted from the total PNP and RA production. […] All collected data were fit to the Michaelis-Menten equation, and kinetic parameters were calculated using nonlinear regression analysis with Graphpad Prism software (Graphpad Software Inc., San Diego, Calif.) […]

WT CES1 = molecular target: T2, WT CES1 (Homo sapiens, UniProt P23141); experiment: MPH hydrolysis to ritalinic acid by S9 of cells expressing WT CES1 (HPLC); assay type: biochemical; conditions: S9 0.5 mg/mL, 37° C., 2 hours, mean ± S.D. (n = 3), listed as d-isomer
T2 construct: inserting a stop codon after CES1A1 gene to yield the constructs expressing CES1 without V5-His tag; expressed in transfected cells
T2 sequence (P23141 18-567): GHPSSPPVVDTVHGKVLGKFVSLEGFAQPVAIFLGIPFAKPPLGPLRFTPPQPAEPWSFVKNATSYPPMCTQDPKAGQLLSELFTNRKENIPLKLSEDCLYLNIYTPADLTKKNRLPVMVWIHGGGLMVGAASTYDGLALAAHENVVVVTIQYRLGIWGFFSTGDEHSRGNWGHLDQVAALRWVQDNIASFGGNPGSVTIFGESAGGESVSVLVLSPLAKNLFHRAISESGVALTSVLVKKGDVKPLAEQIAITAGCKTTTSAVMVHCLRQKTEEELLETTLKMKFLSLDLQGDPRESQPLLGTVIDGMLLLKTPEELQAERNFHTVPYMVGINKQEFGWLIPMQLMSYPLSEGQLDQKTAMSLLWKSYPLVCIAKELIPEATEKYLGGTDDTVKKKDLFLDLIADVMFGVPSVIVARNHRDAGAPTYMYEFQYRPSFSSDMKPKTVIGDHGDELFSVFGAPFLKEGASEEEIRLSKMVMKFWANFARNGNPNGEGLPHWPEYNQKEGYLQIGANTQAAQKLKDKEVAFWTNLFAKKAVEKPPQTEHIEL
Source text: as §1, §2, §3, §4

For `COC(=O)[C@H](c1ccccc1)[C@H]1CCCCN1` [d-MPH, methylphenidate], the “catalytic activity towards MPH hydrolysis” value (p.Asp260fs CES1) was “failed to show any hydrolytic activity” and the Vmax (WT CES1) was 177.2 pmole/min/mg protein.
